Measured values: patent US8106085B2, “Indoline-substituted pyrazoline derivatives, their preparation and use as medicaments” (Laboratorios Del Dr. Esteve, S.A., priority 2005, dated 2012)

Columns and labels:
[1] = molecular target: recombinant human cannabinoid 1 receptor (CB1) (Homo sapiens, UniProt P21554); assay: [35S]GTPγS binding assay, antagonism against WIN 55,212-2; type: biochemical; details: compound at 1 μM against WIN 55,212-2 dose response; CHO-CB1 membranes; 100% = effect of internal standard CB1-antagonist
Method: The percentage of catalepsy is determined according to the following formula: % Catalepsy=arithmetic mean/6×100 Antagonistic Assay: Materials and Methods. Membrane Preparation:
Chinese hamster ovary (CHO) cells stably expressing recombinant human cannabinoid 1 receptor (CB1) were cultured in nutrient mixture Ham's F 12 supplemented with 10% heat-inactivated fetal bovine serum, 2 mM L-glutamine, 50 U/ml penicillin, 50 U/ml streptomycin and 0.5 mg/ml geneticin. In order to obtain cells, culture flasks were washed twice with phosphate buffered saline and scraped. Then, cells were collected by centrifugation (200×g, 10 min) and stored dry at −80° C. Cells were homogenized in ice-cold 20 mM HEPES, 10 mM EDTA (pH 7.5) and centrifuged at 40,000×g for 15 min at 4° C. The pellet was resuspended in 20 mM HEPES, 0.1 mM EDTA (pH 7.5) and centrifuged for 15 min at 4° C. The final pellet was resuspended in 20 mM HEPES, 0.1 mM EDTA (pH 7.5), and divided in aliquots and stored at −80° C. until use.
[^35S]GTPγS Binding Assay:
The reaction was performed in 96-well plates. Membranes (15 µg protein/well) were incubated for 60 min at 30° C. in buffer (50 mM HEPES, 100 mM KCl, 5 mM MgCl2, 1 mM EDTA, 0.1% wt/vol bovine serum albumin, 5 μM GDP, saponin (10 μg/ml), 0.5 nM [^35S]GTPγS, pH 7.4) with compound at 1 μM final concentration in either the absence or presence of dose response curve of agonist WIN 55,212-2 between 3 nM and 3 μM. The incubation was terminated by rapid filtration through Millipore Multiscreen glass fiber FB, and rinsed two-times with ice-cold assay buffer. Filter plates were dried and 30 μl of scintillation liquid was added. Radioactivity was determined using Wallac Microbeta Trilux. Each experiment was performed at least in duplicate. A WIN 55,212-2 dose-response was systematically performed.
The average of basal [^35S]GTPγS binding was subtracted from all binding data. In order to compare the antagonism results from one screening campaign to another one, the difference between the maximal agonist effect of WIN 55,212-2 alone, and the maximal antagonism effect due to WIN 55,212-2 with an internal standard CB1-antagonist was defined as 100%.

CB1 receptor = molecular target: T1, CB1 receptor (Homo sapiens, UniProt P21554); assay: In-vitro determination of affinity to CB1/CB2 receptors (radioligand [3H]-CP55940); details: transfected human receptor, binding
T1 construct: purchased Receptor Biology, Inc
Method: Pharmacological Data: Pharmacological Methods I. In-Vitro Determination of Affinity to CB1/CB2-Receptors
The in-vitro determination of the affinity of the inventive quaternary ammonium salts of substituted pyrazoline compounds to CB1/CB2-Rezeptors is carried out as described in the publication of Ruth A. Ross, Heather C. Brockie et al., “Agonist-inverse agonist characterization at CB1 and CB2 cannabinoid receptors of L-759633, L759656 and AM630”, British Journal of Pharmacology, 126, 665-672, (1999), whereby the transfected human CB1 and CB2 receptors of Receptor Biology, Inc. are used. The radioligand used for both receptors is [^3H]-CP55940. The respective parts of the description are hereby incorporated by reference and forms part of the present disclosure.
The affinity of the inventive substituted pyrazoline compounds to CB1/CB2 receptors was determined as described above.

T1 sequence (P21554 whole entry): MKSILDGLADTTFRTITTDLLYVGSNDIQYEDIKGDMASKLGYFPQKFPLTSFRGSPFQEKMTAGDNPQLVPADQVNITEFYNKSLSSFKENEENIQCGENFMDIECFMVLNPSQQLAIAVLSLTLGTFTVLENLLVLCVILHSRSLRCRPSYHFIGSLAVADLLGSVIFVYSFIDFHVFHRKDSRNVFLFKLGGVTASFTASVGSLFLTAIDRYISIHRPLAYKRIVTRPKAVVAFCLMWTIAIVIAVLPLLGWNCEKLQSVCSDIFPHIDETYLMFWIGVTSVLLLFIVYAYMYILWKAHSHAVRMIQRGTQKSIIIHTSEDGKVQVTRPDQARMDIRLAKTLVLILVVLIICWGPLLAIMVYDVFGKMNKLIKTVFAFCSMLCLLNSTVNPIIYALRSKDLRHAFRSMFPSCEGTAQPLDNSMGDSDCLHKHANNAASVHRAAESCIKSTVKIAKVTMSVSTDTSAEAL
Chain of recombinant human cannabinoid 1 receptor (CB1) (P21554 whole entry): as above

Antagonism (%) [1] | IC50 (CB1 receptor) | SMILES
16 ± 15% | 0.128 µM | CC1Cc2ccccc2N1NC(=O)C1=NN(c2ccc(Cl)cc2Cl)[C@@H](c2ccc(Cl)cc2)[C@H]1C (relative stereo) [Example 5, cis-5-(4-chlorophenyl)-1-(2,4-dichlorophenyl)-4-methyl-N-(2-methylindolin-1-yl)-4,5-dihydro-1H-pyrazole-3-carboxamide]
67 ± 3% | 0.039 µM | C[C@@H]1C(C(=O)NN2CCc3ccccc32)=NN(c2ccc(Cl)cc2Cl)[C@H]1c1ccc(Br)cc1 (relative stereo) [Example 7, trans-5-(4-bromophenyl)-1-(2,4-dichlorophenyl)-N-(indolin-1-yl)-4-methyl-4,5-dihydro-1H-pyrazole-3-carboxamide]
48% | – | C[C@H]1C(C(=O)NN2CCc3ccccc32)=NN(c2ccc(Cl)cc2Cl)[C@H]1c1ccc(F)cc1 (relative stereo) [Example 8, cis-1-(2,4-dichlorophenyl)-5-(4-fluorophenyl)-N-(indolin-1-yl)-4-methyl-4,5-dihydro-1H-pyrazole-3-carboxamide]
70% | 0.1 µM | C[C@H]1C(C(=O)NN2CCc3ccccc32)=NN(c2ccc(Cl)cc2Cl)[C@H]1c1ccc(Cl)cc1 [Example 3, (4R,5R)-5-(4-chlorophenyl)-1-(2,4-dichlorophenyl)-N-(indolin-1-yl)-4-methyl-4,5-dihydro-1H-pyrazole-3-carboxamide]
